In PubChem BioAssay AID256 (DTP/NCI, 2004):
Values joined by “and” are separate entries in the source; they are usually repeats but may differ in a detail not shown here. Equal values may be shown once. Toxic doses and inconclusive results are not listed. How the source made its calls: active means survival T/C of 150% or more; inactive means T/C below 125% in these data.

Tested on: CD2F1 mice, L1210 leukemia ip, survival T/C
Test: NCI In Vivo Anticancer Drug Screen. Data for tumor model L1210 Leukemia (intraperitoneal) in CD2F1 (CDF1) mice
Details: higher = longer survival
Method in brief: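 Vehicle-treated tumor-bearing mice served as controls (C) for compound-treated mice (T). Reported figure is T divided by C.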

[1] = endpoint: mean survival time, dose: 25.0 mg/kg/injection, schedule: Q01DX009 (ip), vehicle: saline
[2] = endpoint: mean survival time, dose: 50.0 mg/kg/injection, schedule: Q01DX009 (ip), vehicle: saline
[3] = endpoint: mean survival time, dose: 100.0 mg/kg/injection, schedule: Q01DX009 (ip), vehicle: saline
[4] = endpoint: mean survival time, dose: 100.0 mg/kg/injection, schedule: Q04DX003 (ip), vehicle: saline
[5] = endpoint: mean survival time, dose: 200.0 mg/kg/injection, schedule: Q04DX003 (ip), vehicle: saline
[6] = endpoint: mean survival time, dose: 100.0 mg/kg/injection, schedule: Q04DX002 (ip), vehicle: saline with Tween-80
[7] = endpoint: mean survival time, dose: 50.0 mg/kg/injection, schedule: Q01DX009 (ip), vehicle: saline with Tween-80
[8] = endpoint: mean survival time, dose: 100.0 mg/kg/injection, schedule: Q01DX009 (ip), vehicle: saline with Tween-80
[9] = endpoint: mean survival time, dose: 200.0 mg/kg/injection, schedule: Q01DX009 (ip), vehicle: saline with Tween-80
[10] = endpoint: mean survival time, dose: 200.0 mg/kg/injection, schedule: Q04DX002 (ip), vehicle: saline with Tween-80
[11] = endpoint: mean survival time, dose: 400.0 mg/kg/injection, schedule: Q04DX002 (ip), vehicle: saline with Tween-80
[12] = endpoint: mean survival time, dose: 100.0 mg/kg/injection, schedule: Q04DX003 (ip), vehicle: saline with Tween-80
[13] = endpoint: mean survival time, dose: 200.0 mg/kg/injection, schedule: Q04DX003 (ip), vehicle: saline with Tween-80
[14] = endpoint: mean survival time, dose: 400.0 mg/kg/injection, schedule: Q04DX003 (ip), vehicle: saline with Tween-80
[15] = endpoint: mean survival time, dose: 100.0 mg/kg/injection, schedule: Q04DX003 (ip), vehicle: saline sonified
[16] = endpoint: mean survival time, dose: 200.0 mg/kg/injection, schedule: Q04DX003 (ip), vehicle: saline sonified
[17] = endpoint: mean survival time, dose: 400.0 mg/kg/injection, schedule: Q04DX003 (ip), vehicle: saline sonified

Measured: T/C

CC(O)CN1CCN(CC(C)O)CC1.[Cl][Pt+2][Cl] (stereo not given)
inactive: endpoint: mean survival time, dose: 3.13 mg/kg/injection, schedule: Q04DX003 (ip), vehicle: saline with Tween-80 105 % of control | endpoint: mean survival time, dose: 6.25 mg/kg/injection, schedule: Q04DX003 (ip), vehicle: saline with Tween-80 102 % of control | endpoint: mean survival time, dose: 12.5 mg/kg/injection, schedule: Q04DX003 (ip), vehicle: saline with Tween-80 105 % of control | endpoint: mean survival time, dose: 25.0 mg/kg/injection, schedule: Q04DX003 (ip), vehicle: saline with Tween-80 102 % of control | endpoint: mean survival time, dose: 50.0 mg/kg/injection, schedule: Q04DX003 (ip), vehicle: saline with Tween-80 97 % of control

CCN(C(=O)CCl)C(C)(C)C(SSSC(c1ccc(Cl)cc1)C(C)(C)N(CC)C(=O)CCl)c1ccc(Cl)cc1 (stereo not given)
inactive: endpoint: mean survival time, dose: 12.5 mg/kg/injection, schedule: Q01DX009 (ip), vehicle: saline 96 % of control | [1] 102 % of control | [2] 95 % of control and 106 % of control | [3] 100 % of control

C[S+](C)C
inactive: [1] 101 % of control | [2] 100 % of control | [3] 104 % of control | [4] 101 % of control | endpoint: mean survival time, dose: 200.0 mg/kg/injection, schedule: Q01DX009 (ip), vehicle: saline 98 % of control | [5] 101 % of control | endpoint: mean survival time, dose: 400.0 mg/kg/injection, schedule: Q01DX009 (ip), vehicle: saline 102 % of control | endpoint: mean survival time, dose: 400.0 mg/kg/injection, schedule: Q04DX003 (ip), vehicle: saline 104 % of control

O=C(Sc1ccccc1)C(CO)c1ccccc1 (stereo not given)
inactive: endpoint: mean survival time, dose: 25.0 mg/kg/injection, schedule: Q04DX002 (ip), vehicle: saline with Tween-80 101 % of control | endpoint: mean survival time, dose: 50.0 mg/kg/injection, schedule: Q04DX002 (ip), vehicle: saline with Tween-80 101 % of control | [6] 97 % of control

C/C=C/COC1CCS(=O)(=O)C1 (stereo not given)
inactive: [7] 104 % of control | [8] 97 % of control | [9] 97 % of control

CCC(=O)c1ccc(OCOc2ccc(C(=O)CC)cc2OC)c(OC)c1
inactive: endpoint: mean survival time, dose: 100.0 mg/kg/injection, schedule: Q01DX001 (ip), vehicle: saline 94 % of control | endpoint: mean survival time, dose: 200.0 mg/kg/injection, schedule: Q01DX001 (ip), vehicle: saline 96 % of control | endpoint: mean survival time, dose: 400.0 mg/kg/injection, schedule: Q01DX001 (ip), vehicle: saline 91 % of control

Nc1nc2c(ncn2CCCCc2ccccc2)c(=O)[nH]1
inactive: [6] 94 % of control | [10] 94 % of control | [11] 94 % of control

S=C=NCCc1ccccc1
inactive: endpoint: mean survival time, dose: 3.12 mg/kg/injection, schedule: Q01DX009 (ip), vehicle: saline with Tween-80 93 % of control | endpoint: mean survival time, dose: 6.25 mg/kg/injection, schedule: Q01DX009 (ip), vehicle: saline with Tween-80 92 % of control | endpoint: mean survival time, dose: 12.5 mg/kg/injection, schedule: Q01DX009 (ip), vehicle: saline with Tween-80 106 % of control | endpoint: mean survival time, dose: 25.0 mg/kg/injection, schedule: Q01DX009 (ip), vehicle: saline with Tween-80 104 % of control | [7] 106 % of control

C=CCN(CC=C)C(=O)Nc1ccc(C)c(C)c1
inactive: [7] 96 % of control | [8] 92 % of control | [9] 96 % of control

CC12CCC(=O)C=C1CCCC2=O (stereo not given)
inactive: [2] 98 % of control | [3] 96 % of control

O=NC1C2CCC(C2)C1Cl (stereo not given)
inactive: endpoint: mean survival time, dose: 5.0 mg/kg/injection, schedule: Q01DX001 (ip), vehicle: saline 98 % of control | endpoint: mean survival time, dose: 10.0 mg/kg/injection, schedule: Q01DX001 (ip), vehicle: saline 97 % of control | endpoint: mean survival time, dose: 20.0 mg/kg/injection, schedule: Q01DX001 (ip), vehicle: saline 95 % of control

COc1ccc([N+](=O)[O-])cc1NC(=O)Nc1cccc(Cl)c1
inactive: [6] 91 % of control | [10] 97 % of control | [11] 91 % of control

NC(N)=NC(N)=Nc1ccc([As](=O)(O)O)c(O)c1
inactive: endpoint: mean survival time, dose: 100.0 mg/kg/injection, schedule: Q01DX009 (ip), vehicle: saline sonified 111 % of control

CCOc1cccc(Cc2cn(Cc3ccccc3)c(=O)[nH]c2=O)c1
inactive: [12] 100 % of control | [13] 106 % of control | [14] 96 % of control

CC(C)(C)OC(=O)NCCCCC(N)C(=O)OC(C)(C)C (stereo not given)
inactive: [4] 96 % of control | [5] 93 % of control

Nc1nc(N)c2c(n1)NCN(CCc1ccc(Cl)cc1)C2
inactive: endpoint: mean survival time, dose: 0.75 mg/kg/injection, schedule: Q01DX009 (ip), vehicle: distilled water + Tween-80 100 % of control | endpoint: mean survival time, dose: 1.5 mg/kg/injection, schedule: Q01DX009 (ip), vehicle: distilled water + Tween-80 102 % of control | endpoint: mean survival time, dose: 3.0 mg/kg/injection, schedule: Q01DX009 (ip), vehicle: distilled water + Tween-80 102 % of control | endpoint: mean survival time, dose: 6.0 mg/kg/injection, schedule: Q01DX009 (ip), vehicle: distilled water + Tween-80 100 % of control | endpoint: mean survival time, dose: 12.0 mg/kg/injection, schedule: Q01DX009 (ip), vehicle: distilled water + Tween-80 100 % of control | endpoint: mean survival time, dose: 24.0 mg/kg/injection, schedule: Q01DX009 (ip), vehicle: distilled water + Tween-80 98 % of control

COC(=O)C(Br)C(OC)c1ccc(Cl)cc1 (stereo not given)
inactive: [8] 101 % of control | [15] 100 % of control | [9] 95 % of control | [16] 101 % of control | endpoint: mean survival time, dose: 400.0 mg/kg/injection, schedule: Q01DX009 (ip), vehicle: saline with Tween-80 97 % of control | [17] 95 % of control

O=C(O)Cc1ccncc1
inactive: [12] 97 % of control | [13] 100 % of control | [14] 97 % of control

COC(=O)C12OCC34C(CC5C(C)C6=CC(=O)OC6=CC5(C)C3C(O)C1O)OC(=O)C(OC(C)=O)C24 (stereo not given)
inactive: endpoint: median survival time, dose: 0.13 mg/kg/injection, schedule: Q01DX009 (ip), vehicle: saline + alcohol 98 % of control | endpoint: median survival time, dose: 0.25 mg/kg/injection, schedule: Q01DX009 (ip), vehicle: saline + alcohol 98 % of control | endpoint: median survival time, dose: 0.5 mg/kg/injection, schedule: Q01DX009 (ip), vehicle: saline + alcohol 98 % of control | endpoint: median survival time, dose: 1.0 mg/kg/injection, schedule: Q01DX009 (ip), vehicle: saline + alcohol 100 % of control | endpoint: median survival time, dose: 2.0 mg/kg/injection, schedule: Q01DX009 (ip), vehicle: saline + alcohol 102 % of control and 103 % of control | endpoint: median survival time, dose: 4.0 mg/kg/injection, schedule: Q01DX009 (ip), vehicle: saline + alcohol 102 % of control | endpoint: median survival time, dose: 8.0 mg/kg/injection, schedule: Q01DX009 (ip), vehicle: saline + alcohol 94 % of control | endpoint: median survival time, dose: 16.0 mg/kg/injection, schedule: Q01DX009 (ip), vehicle: saline + alcohol 96 % of control

S=C(NNC(=S)Nc1ccc(Cl)cc1)NNc1ccccc1
inactive: endpoint: mean survival time, dose: 50.0 mg/kg/injection, schedule: Q01DX009 (ip), vehicle: acetone 95 % of control | endpoint: mean survival time, dose: 100.0 mg/kg/injection, schedule: Q01DX009 (ip), vehicle: acetone 97 % of control

CC1CC(C)(C)CC2CC(C(=O)O)(C(=O)O)CC12 (stereo not given)
inactive: [15] 102 % of control | [16] 96 % of control | [17] 100 % of control

O=c1cc(O)c(Cl)nn1C1OC(CO)C(O)C1O (stereo not given)
inactive: endpoint: mean survival time, dose: 12.5 mg/kg/injection, schedule: Q01DX009 (ip), vehicle: water 103 % of control | endpoint: mean survival time, dose: 25.0 mg/kg/injection, schedule: Q01DX009 (ip), vehicle: water 97 % of control | endpoint: mean survival time, dose: 50.0 mg/kg/injection, schedule: Q01DX009 (ip), vehicle: water 100 % of control | endpoint: mean survival time, dose: 100.0 mg/kg/injection, schedule: Q01DX009 (ip), vehicle: water 100 % of control | endpoint: mean survival time, dose: 200.0 mg/kg/injection, schedule: Q01DX009 (ip), vehicle: water 95 % of control | endpoint: mean survival time, dose: 400.0 mg/kg/injection, schedule: Q01DX009 (ip), vehicle: water 91 % of control

Cc1ccc(C(=O)[O][Hg][CH2]C2COC([CH2][Hg][O]C(=O)c3ccc(C)cc3)CO2)cc1 (stereo not given)
inactive: endpoint: mean survival time, dose: 3.12 mg/kg/injection, schedule: Q01DX009 (ip), vehicle: Klucel (hydroxypropylcellulose) (HPC) 100 % of control and 106 % of control | endpoint: mean survival time, dose: 6.25 mg/kg/injection, schedule: Q01DX009 (ip), vehicle: Klucel (hydroxypropylcellulose) (HPC) 101 % of control and 105 % of control | endpoint: mean survival time, dose: 12.5 mg/kg/injection, schedule: Q01DX009 (ip), vehicle: Klucel (hydroxypropylcellulose) (HPC) 98 % of control and 108 % of control | endpoint: mean survival time, dose: 25.0 mg/kg/injection, schedule: Q01DX009 (ip), vehicle: Klucel (hydroxypropylcellulose) (HPC) 98 % of control and 108 % of control | endpoint: mean survival time, dose: 50.0 mg/kg/injection, schedule: Q01DX009 (ip), vehicle: Klucel (hydroxypropylcellulose) (HPC) 104 % of control
